Assay results from patent US7019002B2, “Pyridopyrimidinones derivatives as telomerase inhibitors” (Pharmacia & Upjohn, S.p.A., priority 2001, dated 2006).

target: T1, telomerase enzyme (Homo sapiens, UniProt O14746); experiment: Flash Plate-based telomerase activity assay; assay type: biochemical; details: telomerase inhibition; two hours of incubation at 37°; Flash Plate readout, Sigma Plot fit
T1 construct: telomerase enzyme diluted in a buffer
Experimental: The telomerase activity of compounds of the invention have been evaluated using a Flash Plate-based assay.
Briefly the assay mixture is constituted of: • telomerase enzyme diluted in a buffer, the composition of which has been selected to maintain the enzyme activity stable along the duration of the assay. • dNTPs, deoxynucleotides 5′-triphosphate. • biotinylated oligo as primer. • increasing concentrations of test compounds/positive control.
After two hours of incubation at 37° degrees the telomeric repeats added are evaluated by hybridization in solution with a 3′-labeled short oligonucleotide probe.
The extent of hybridization is then quantitated by transferring the reaction mixture in a streptavidin-coated flash plate, where the binding between biotin and streptavidin occurs.
The telomerase activity is proportional to the radioactivity measured and the inhibitory activity of the compounds is evaluated as IC50 using the Sigma Plot fit program.
With the above-described method IC50 values of the compounds of the present invention were determined.

T1 sequence (O14746 whole entry): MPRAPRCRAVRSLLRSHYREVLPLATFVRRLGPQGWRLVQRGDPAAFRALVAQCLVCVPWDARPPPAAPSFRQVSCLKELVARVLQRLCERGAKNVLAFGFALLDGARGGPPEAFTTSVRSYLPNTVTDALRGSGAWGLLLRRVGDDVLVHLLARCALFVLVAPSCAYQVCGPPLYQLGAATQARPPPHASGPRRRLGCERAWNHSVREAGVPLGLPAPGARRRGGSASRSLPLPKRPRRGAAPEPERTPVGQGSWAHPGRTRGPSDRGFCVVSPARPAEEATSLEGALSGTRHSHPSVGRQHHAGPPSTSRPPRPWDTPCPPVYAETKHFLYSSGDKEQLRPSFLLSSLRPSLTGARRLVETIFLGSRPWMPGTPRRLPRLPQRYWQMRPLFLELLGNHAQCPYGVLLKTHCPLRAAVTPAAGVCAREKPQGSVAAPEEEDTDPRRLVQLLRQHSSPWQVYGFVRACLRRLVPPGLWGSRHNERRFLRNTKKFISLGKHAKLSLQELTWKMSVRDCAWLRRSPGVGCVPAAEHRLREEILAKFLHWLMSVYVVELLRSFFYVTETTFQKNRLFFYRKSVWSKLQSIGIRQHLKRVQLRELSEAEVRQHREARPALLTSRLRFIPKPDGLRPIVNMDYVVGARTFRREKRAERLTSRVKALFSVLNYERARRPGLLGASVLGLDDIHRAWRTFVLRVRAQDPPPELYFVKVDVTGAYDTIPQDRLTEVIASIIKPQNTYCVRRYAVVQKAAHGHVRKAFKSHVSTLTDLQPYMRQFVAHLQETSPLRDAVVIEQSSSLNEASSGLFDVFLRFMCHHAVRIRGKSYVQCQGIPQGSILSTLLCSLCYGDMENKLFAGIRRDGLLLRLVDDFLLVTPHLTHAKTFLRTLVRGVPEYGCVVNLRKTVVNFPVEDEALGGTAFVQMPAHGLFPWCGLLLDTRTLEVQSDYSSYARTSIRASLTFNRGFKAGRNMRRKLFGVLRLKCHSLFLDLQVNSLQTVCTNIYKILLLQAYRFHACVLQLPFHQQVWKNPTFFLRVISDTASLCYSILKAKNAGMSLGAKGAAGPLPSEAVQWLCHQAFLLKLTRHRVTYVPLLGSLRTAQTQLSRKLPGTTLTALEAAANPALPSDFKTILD

In order of falling IC50:
1. Cc1nc(N2CCN(c3ccc(F)cc3)CC2)nc2c1ccc(=O)n2-c1ccc(C(=O)NCc2ccco2)cc1 [Compound 21, 4-(2-[4-(4-fluorophenyl)-1-piperazinyl]-4-methyl-7-oxopyrido[2,3-d]pyrimidin-8(7H)-yl)-N-(2-furylmethyl)benzamide]  21.8 µM
2. Cc1nc(NCC(C)C)nc2c1ccc(=O)n2-c1ccc(C(=O)Nc2ccccc2)cc1 [Compound 44, 4-(2-Isobutylamino-4-methyl-7-oxo-7H-pyrido[2,3-d]pyrimidin-8-yl)-N-phenyl-benzamide]  19.1 µM
3. Cc1nc(N2CCN(c3ncccn3)CC2)nc2c1ccc(=O)n2-c1ccc(C(=O)NCc2ccco2)cc1 [Compound 28, N-(2-furylmethyl)-4-(4-methyl-7-oxo-2-[4-(2-pyrimidinyl)-1-piperazinyl]pyrido[2,3-d]pyrimidin-8(7H)-yl)benzamide]  16.6 µM
4. Cc1nc(N2CCN(c3ncccn3)CC2)nc2c1ccc(=O)n2-c1ccc(C(=O)NCc2cccnc2)cc1 [Compound 30, 4-(4-methyl-7-oxo-2-[4-(2-pyrimidinyl)-1-piperazinyl]pyrido[2,3-d]pyrimidin-8(7H)-yl)-N-(3-pyridinylmethyl)benzamide]  9.4 µM
5. Cc1nc(N2CCN(c3ncccn3)CC2)nc2c1ccc(=O)n2-c1ccc(C(=O)NCc2ccc(F)cc2F)cc1 [Compound 31, N-(2,4-difluorobenzyl)-4-(4-methyl-7-oxo-2-[4-(2-pyrimidinyl)-1-piperazinyl]pyrido[2,3-d]pyrimidin-8(7H)-yl)benzamide]  9.4 µM
6. COc1ccc(NC(=O)c2ccc(-n3c(=O)ccc4c(C)nc(N5CCc6ccccc6C5)nc43)cc2)cc1OC [Compound 34, 4-(2-(3,4-dihydro-2(1H)-isoquinolinyl)-4-methyl-7-oxopyrido[2,3-d]pyrimidin-8(7H)-yl)-N-(3,4-dimethoxyphenyl)benzamide]  8.2 µM
7. Cc1nc(N2CCc3ccccc3C2)nc2c1ccc(=O)n2-c1ccc(C(=O)NCC[N+]2([O-])CCOCC2)cc1 [Compound 45, 4-[2-(3,4-Dihydro-1H-isoquinolin-2-yl)-4-methyl-7-oxo-7H-pyrido[2,3-d]pyrimidin-8-yl]-N-[2-(4-oxy-morpholin-4-yl)-ethyl]-benzamide]  7.3 µM
8. CCCCCCCCNC(=O)c1ccc(-n2c(=O)ccc3c(C)nc(NCC(C)C)nc32)cc1 [Compound 43, 4-(2-Isobutylamino-4-methyl-7-oxo-7H-pyrido[2,3-d]pyrimidin-8-yl)-N-octyl-benzamide]  6.1 µM
9. Cc1nc(N2CCN(c3ccc(F)cc3)CC2)nc2c1ccc(=O)n2-c1ccc(C(=O)NCc2ccccc2)cc1 [Compound 20, N-benzyl-4-(2-[4-(4-fluorophenyl)-1-piperazinyl]-4-methyl-7-oxopyrido[2,3-d]pyrimidin-8(7H)-yl)benzamide]  6.1 µM
10. CCOC(=O)c1ccc(Nc2nc(C)c3ccc(=O)n(-c4ccc(C(=O)OCC)cc4)c3n2)cc1 [Compound 42, Ethyl 4-({8-[4-(ethoxycarbonyl)phenyl]-4-methyl-7-oxo-7,8-dihydropyrido[2,3-d]pyrimidin-2-yl}amino)benzoate]  4.6 µM
11. Cc1nc(N2CCN(c3ncccn3)CC2)nc2c1ccc(=O)n2-c1ccc(C(=O)NCc2ccccc2)cc1 [Compound 27, N-benzyl-4-(4-methyl-7-oxo-2-[4-(2-pyrimidinyl)-1-piperazinyl]pyrido[2,3-d]pyrimidin-8(7H)-yl)benzamide]  3.9 µM
12. Cc1nc(N2CCN(c3ccccn3)CC2)nc2c1ccc(=O)n2-c1ccc(C(=O)NCc2ccco2)cc1 [Compound 24, N-(2-furylmethyl)-4-(4-methyl-7-oxo-2-[4-(2-pyridinyl)-1-piperazinyl]pyrido[2,3-d]pyrimidin-8(7H)-yl)benzamide]  3.8 µM
13. COC(=O)c1ccc(Nc2nc(C)c3ccc(=O)n(-c4ccc(C(=O)OC)cc4)c3n2)cc1 [Compound 41, methyl 4-({8-[4-(methoxycarbonyl)phenyl]-4-methyl-7-oxo-7,8-dihydropyrido[2,3-d]pyrimidin-2-yl}amino)benzoate]  3.1 µM
14. CCOC(=O)c1ccc(NC(=O)c2ccc(-n3c(=O)ccc4c(C)nc(N5CCc6ccccc6C5)nc43)cc2)cc1 [Compound 37, Ethyl 4-{[4-(2-(3,4-dihydro-2(1H)-isoquinolinyl)-4-methyl-7-oxopyrido[2,3-d]pyrimidin-8(7H)-yl)benzoyl]amino}benzoate]  2.9 µM
15. Cc1nc(N2CCc3ccccc3C2)nc2c1ccc(=O)n2-c1ccc(C(=O)NCCC[N+](C)(C)[O-])cc1 [Compound 46, 4-(2-(3,4-dihydro-2(1H)-isoquinolinyl)-4-methyl-7-oxopyrido[2,3-d]pyrimidin-8(7H)-yl)-N-[3-(dimethylamino-N-oxido)propyl]benzamide]  2.6 µM
16. COc1ccc(CNC(=O)c2ccc(-n3c(=O)ccc4c(C)nc(N5CCc6ccccc6C5)nc43)cc2)cc1OC [Compound 36, 4-(2-(3,4-dihydro-2(1H)-isoquinolinyl)-4-methyl-7-oxopyrido[2,3-d]pyrimidin-8(7H)-yl)-N-(3,4-dimethoxybenzyl)benzamide]  2 µM
17. Cc1nc(N2CCc3ccccc3C2)nc2c1ccc(=O)n2-c1ccc(C(=O)N(C)C)cc1 [Compound 35, 4-(2-(3,4-dihydro-2(1H)-isoquinolinyl)-4-methyl-7-oxopyrido[2,3-d]pyrimidin-8(7H)-yl)-N,N-dimethylbenzamide]  1.9 µM
18. COc1ccc(CNC(=O)c2ccc(-n3c(=O)ccc4c(C)nc(N5CCN(c6ccccn6)CC5)nc43)cc2)cc1OC [Compound 25, N-(3,4-dimethoxybenzyl)-4-(4-methyl-7-oxo-2-[4-(2-pyridinyl)-1-piperazinyl]pyrido[2,3-d]pyrimidin-8(7H)-yl)benzamide]  1.7 µM
19. Cc1nc(N2CCc3ccccc3C2)nc2c1ccc(=O)n2-c1ccc(C(=O)Nc2cccc(C#N)c2)cc1 [Compound 38, N-(3-cyanophenyl)-4-(2-(3,4-dihydro-2(1H)-isoquinolinyl)-4-methyl-7-oxopyrido[2,3-d]pyrimidin-8(7H)-yl)benzamide]  1.6 µM
20. Cc1nc(N2CCc3ccccc3C2)nc2c1ccc(=O)n2-c1ccc(C(=O)NC2CCCCC2)cc1 [Compound 39, N-cyclohexyl-4-(2-(3,4-dihydro-2(1H)-isoquinolinyl)-4-methyl-7-oxopyrido[2,3-d]pyrimidin-8(7H)-yl)benzamide]  1.4 µM
21. Cc1nc(N2CCN(c3ncccn3)CC2)nc2c1ccc(=O)n2-c1ccc(C(=O)NCc2cccc3ccccc23)cc1 [Compound 32, 4-(4-methyl-7-oxo-2-[4-(2-pyrimidinyl)-1-piperazinyl]pyrido[2,3-d]pyrimidin-8(7H)-yl)-N-(1-naphthylmethyl)benzamide]  1.25 µM
22. Cc1nc(N2CCc3ccccc3C2)nc2c1ccc(=O)n2-c1ccc(C(=O)NC2CC2)cc1 [Compound 33, N-cyclopropyl-4-(2-(3,4-dihydro-2(1H)-isoquinolinyl)-4-methyl-7-oxopyrido[2,3-d]pyrimidin-8(7H)-yl)benzamide]  1.1 µM
